According to article PMC7473970, “Preformulation Studies of a Stable PTEN-PDZ Lipopeptide Able to Cross an In Vitro Blood-Brain-Barrier Model as a Potential Therapy for Alzheimer’s Disease” (Pharmaceutical Research, 2020):
Residues, ends and D or L forms follow the SMILES beside them.

Columns and labels:
hCMEC/D3 cells = test: MTT metabolic activity assay in hCMEC/D3 cells; type: cell-based, human; conditions: 24 h versus 4 h exposure
Experimental: HCMEC/D3 (passage number 32–40) cultured in EBM-2 (Lonza) supplemented with the EGM-2 Bullet Kit™ (Lonza), and 2% v/v human serum (Sigma H3667, Batch: SLBW2276) were used to assess the cytotoxicity of lipidized peptides. The cells were subjected to routine mycoplasma testing and authenticated in house. The cells were seeded at 46,875 cells/cm^2 in complete medium, and allowed to attach overnight, refreshing the medium to treat the cells with peptide solutions. The peptide solutions were prepared from […] DMSO stocks at a final concentration between 1 and 400 μM in complete medium to ensure a final DMSO concentration of 0.5%, and 200 μL of the diluted stock was added to each well. The metabolic activity of the cells was measured after 4 and 24 h using the MTT (3-(4,5)-dimethylthiazol-2-yl)-2,5-diphenyltetrazolium bromide) assay. At the time points specified, the MTT solution was added to each well (20 μL at 5 mg.mL^−1 in PBS), and the cells were incubated for 4 h at 37°C. Subsequently, DMSO (100 μL) was added to dissolve the formazan crystals, and the absorbance was measured at 570 and 690 nm on a Multiskan Go microplate spectrophotometer, analyzing the data using the SkanIt software (Thermo Scientific, Paisley, UK). […]
IC50 values were calculated using Graphpad Prism 8.0 (San Diego, USA) and fitted using a non-linear regression model ([Inhibitor] vs. response (three parameters)).

[1] = Permeability across in vitro 2D human blood-brain barrier model; type: in vitro ADME; conditions: read-out: Papp0-4h, Experiment 2
[2] = In vitro stability in 50% v/v mouse plasma; type: in vitro ADME; conditions: 37°C, HPLC-UV 220 nm, one phase decay, least square fit, n = 3
Experimental: CD-1 male mice (7 weeks old: Charles River Laboratories) were sacrificed with CO2, and blood was collected in K3E EDTA spray-coated vacutainers and kept on ice prior to centrifugation at 3000 rpm for 15 min at 4°C (Heraeus Multifuge 3sf). Mouse plasma samples were stored at −80°C before use in stability studies. Study was approved by the University of Portsmouth Animal Welfare and Ethical Review Body (UoP AWERB body, 817).
For testing, the plasma was diluted (1:1) in PBS without phenol and pre-warmed to 37°C. Peptides stocks (5 mM in DMSO) were prepared and maintained at −20°C before performing the stability studies. Peptide stock solutions (120 μL) were added to pre-warmed diluted plasma (50% v/v, 1080 μL) and maintained at 37°C with agitation (100 rpm: Grant Aqua Waterbath, Royston, UK). Samples (80 μL) were taken at 0, 3, 6,9, 15, 30, 45, 60, 90, 120, 180, 240, 360 and 1440 min, diluted with ice-cold acetonitrile (80 μL), vortexed and left in −80°C at least overnight to favor maximal protein precipitation. The samples were then vortexed again for 15 min (SciQuip microplate shaker, Shropshire, UK), centrifuged in a Thermo Sci Jouan B4i Centrifuge (Hemel Hampstead, UK) and the supernatant was transferred to an HPLC vial (200 μL).
(§1) The samples were analyzed at 40°C on a Phenomenex Lichrosorb RP8 C8 column (4.0 mm × 250 mm, 5 μm), using the gradient elution method on an Agilent HPLC system (Agilent Technologies, Cheadle, UK) equipped with an 1100 series degasser, quaternary pump, autosampler, and column heater, and attached to an Agilent 1200 series PDA detector and a 1250 series fluorescent detector. The flow rate was set at 1.2 mL min^-1, and the injection volume was set at 40 μL, while detection was performed at 220 nm. The mobile phase was a mixture of mobile phase A (0.1% TFA in water) and phase B (0.08% TFA in acetonitrile), and in the first 5 min, the mobile phase was an 8:2 ratio of A:B (v/v) and from 5 to 15 min the percentage of B was raised from 8:2 to 1:9 (v/v). Linear calibration curves were constructed for both peptides between 0.1–100 μg.mL^−1. The retention time for the human Lau–PTEN-PDZ, mouse Lau–PTEN-PDZ, human Myr–PTEN-PDZ, and mouse Myr–PTEN-PDZ was 12.03, 11.60, 13.68, and 13.91, respectively.

[3] = In vitro stability in simulated intestinal fluid (mouse intestinal wash); type: in vitro ADME; conditions: 120 μL of 5 mM DMSO stock in 1080 μL, 37°C, 0-1440 min, HPLC-UV 220 nm, n = 3
Experimental: as §1
The duodenum and ileum were excised from 10 non-fasted CD-1 male mice (7 weeks-old: Charles River Laboratories) that were sacrificed with CO2. Each duodenum and ileum were washed with 6 ml of phosphate buffer (50 mM, pH 6.63), and all the washes were pooled prior to centrifugation at 4000 rpm for 15 min at 4°C (Heraeus Multifuge 3sf) ([7],[15]). The intestinal wash was removed and frozen at −80°C prior to using it in stability studies without further dilution. Peptides stocks (5 mM in DMSO) were prepared and maintained at −20°C prior to performing stability studies. A stock peptide solution (120 μL) was added to the diluted pre-warmed (37°C) intestinal wash (1080 μL) with agitation at 100 rpm (Grant Aqua Waterbath), and samples (80 μL) were taken at 0, 15, 30, 45, 60, 90, 120, 180, 240, 360 and 1440 min, and diluted with ice-cold glacial acetic acid (17.5 M): acetonitrile (5:95 v/v, 80 μL) to quench the enzyme activity. Samples were vortexed and left in −80°C at least overnight to maximize protein precipitation, and after vortexing again for 15 min and centrifuging, the supernatant was analyzed by HPLC as described above.

[4] = Simulated intestinal fluid = undiluted pooled CD-1 mouse duodenum/ileum wash, phosphate buffer pH 6.63, one phase decay fit

**Q.** What does the source list for `CCCCCCCCCCCCCC(=O)N[C@@H](CCC(N)=O)C(=O)N[C@@H](Cc1c[nH]cn1)C(=O)N[C@@H](CO)C(=O)N[C@@H](CCC(N)=O)C(=O)N[C@H](C(=O)N[C@H](C(=O)N[C@@H](CCCCN)C(=O)N[C@H](C(=O)O)C(C)C)[C@@H](C)O)[C@@H](C)CC` [Mouse Myr-PTEN-PDZ] (HELM PEPTIDE1{[CCCCCCCCCCCCCC(=O)[*:2]].Q.H.S.Q.I.T.K.V}$$$$V2.0)?
**A.** Recovery of cell metabolic activity after 24 h (hCMEC/D3 cells): did not allow the cells to recover after 24 h; Papp A→B at 100 μM [1]: 2.63 ± 0.08 ×10⁻⁶ cm/s; k ([2]; 50% v/v CD-1 mouse plasma (K3 EDTA) in PBS, 120 μL of 5 mM DMSO stock in 1080 μL, 100 rpm, 0-1440 min): 0.80 h⁻¹; t1/2 (h) ([2]; 50% v/v mouse plasma in PBS): 0.87 h; t1/2 (min) ([2]; 50% v/v mouse plasma in PBS): 52.16 min; k ([3]; Simulated intestinal fluid = undiluted pooled CD-1 mouse duodenum/ileum wash in 50 mM phosphate buffer pH 6.63, 100 rpm, one phase decay, least square fit): 0.15 h⁻¹; t1/2 (h) [3, 4]: 4.52 h; t1/2 (min) [3, 4]: 271.02 min
